Test results as given in ChEMBL document CHEMBL4265872, “Around the macrolide - Impact of 3D structure of macrocycles on lipophilicity and cellular accumulation” (Eur J Med Chem, 2017).

Key:
[1] = Chromatographic hydrophobicity, logD of the compound at pH 7.4 by fast-gradient RP-HPLC method; type: physicochemical; settings: buffer
[2] = Drug accumulation in human NCI-H292 cells at 3 to 10 uM incubated for 3 hrs by LC-MS analysis relative to azithromycin; type: ADME, cell-based; settings: nci-h292, 3 h

Compound | chromatographic logD [1] | Drug uptake [2]
CCC(=O)NCCCO[C@H]1[C@H](C)[C@@H](O[C@@H]2O[C@H](C)C[C@H](N(C)C)[C@H]2O)[C@](C)(O)C[C@@H](C)CN(C)[C@H](C)[C@@H](O)[C@](C)(O)[C@@H](CC)OC(=O)[C@@H]1C | 1.6 | 22%
CC[C@H]1OC(=O)[C@H](C)[C@@H](O[C@H]2C[C@@](C)(OC)[C@@H](O)[C@H](C)O2)[C@H](C)[C@@H](O[C@@H]2O[C@H](C)C[C@H](N(C)C)[C@H]2OCCCNC(=O)c2c(C)nn(C)c2Cl)[C@](C)(O)C[C@@H](C)CN(C)[C@H](C)[C@@H](O)[C@]1(C)O | 3.08 | 95%
CC[C@H]1OC(=O)[C@H](C)[C@@H](O[C@H]2C[C@@](C)(OC)[C@@H](O)[C@H](C)O2)[C@H](C)[C@@H](O[C@@H]2O[C@H](C)C[C@H](N(C)C)[C@H]2O)[C@](C)(O)C[C@@H](C)CN(CCCNC(=O)c2c(C)nn(C)c2Cl)[C@H](C)[C@@H](O)[C@]1(C)O | 2.2 | 5%
CCCCCCCC(=O)NCCCO[C@H]1[C@H](C)O[C@@H](O[C@H]2[C@H](C)[C@@H](O[C@@H]3O[C@H](C)C[C@H](N(C)C)[C@H]3O)[C@](C)(OC)C[C@@H](C)C(=O)[C@H](C)[C@@H](O)[C@](C)(O)[C@@H](CC)OC(=O)[C@@H]2C)C[C@@]1(C)OC | 6.02 | 281%
CCCCCCCC(=O)NCCCN1C[C@H](C)C[C@@](C)(O)[C@H](O[C@@H]2O[C@H](C)C[C@H](N(C)C)[C@H]2O)[C@@H](C)[C@H](O)[C@@H](C)C(=O)O[C@H](CC)[C@@](C)(O)[C@H](O)[C@H]1C | 3.08 | 80%
CCCCCCCC(=O)NCCCN(C)[C@H]1C[C@@H](C)O[C@@H](O[C@@H]2[C@@H](C)[C@H](O)[C@@H](C)C(=O)O[C@H](CC)[C@@](C)(O)[C@H](O)[C@@H](C)N(C)C[C@H](C)C[C@@]2(C)O)[C@@H]1O | 4.84 | 226%
CC[C@H]1OC(=O)[C@H](C)[C@@H](O)[C@H](C)[C@@H](O)[C@](C)(O)C[C@@H](C)CN(C)[C@H](C)[C@@H](O)[C@]1(C)O [AZITHROMYCIN AGLYCONE] | 1.29 | 13%
CC[C@H]1OC(=O)[C@H](C)[C@@H](O[C@H]2C[C@@](C)(OC)[C@@H](O)[C@H](C)O2)[C@H](C)[C@@H](O[C@@H]2O[C@H](C)C[C@H](N(C)C)[C@H]2O)[C@](C)(OC)C[C@@H](C)C(=O)[C@H](C)[C@@H](O)[C@]1(C)O [CLARITHROMYCIN] | 3.5 | 35%
CC[C@H]1OC(=O)[C@H](C)[C@@H](O)[C@H](C)[C@@H](O[C@@H]2O[C@H](C)C[C@H](N(C)C)[C@H]2O)[C@](C)(O)C[C@@H](C)CN(C)[C@H](C)[C@@H](O)[C@]1(C)O [DESCLADINOSYL AZITHROMYCIN] | 1.35 | 56%

Now from value to molecule:

chromatographic logD [1] | Drug uptake [2] | Compound
3.74 | 457% | CCCCCCCC(=O)NCCCN(C)[C@H]1C[C@@H](C)O[C@@H](O[C@@H]2[C@@H](C)[C@H](O[C@H]3C[C@@](C)(OC)[C@@H](O)[C@H](C)O3)[C@@H](C)C(=O)O[C@H](CC)[C@@](C)(O)[C@H](O)[C@@H](C)N(C)C[C@H](C)C[C@@]2(C)O)[C@@H]1O
3.74 | 207% | CCCCCCCC(=O)NCCCN1C[C@H](C)C[C@@](C)(O)[C@H](O[C@@H]2O[C@H](C)C[C@H](N(C)C)[C@H]2O)[C@@H](C)[C@H](O[C@H]2C[C@@](C)(OC)[C@@H](O)[C@H](C)O2)[C@@H](C)C(=O)O[C@H](CC)[C@@](C)(O)[C@H](O)[C@H]1C
2.74 | 41% | CCC(=O)NCCCO[C@@H]1[C@@H](C)N(C)C[C@H](C)C[C@@](C)(O)[C@H](O[C@@H]2O[C@H](C)C[C@H](N(C)C)[C@H]2O)[C@@H](C)[C@H](O[C@H]2C[C@@](C)(OC)[C@@H](O)[C@H](C)O2)[C@@H](C)C(=O)O[C@H](CC)[C@@]1(C)O
2.54 | 22% | CC[C@H]1OC(=O)[C@H](C)[C@@H](O[C@H]2C[C@@](C)(OC)[C@@H](O)[C@H](C)O2)[C@H](C)[C@@H](O[C@@H]2O[C@H](C)C[C@H](N(C)C)[C@H]2OCCCNC(=O)COC)[C@](C)(O)C[C@@H](C)CN(C)[C@H](C)[C@@H](O)[C@]1(C)O
5.18 | 756% | CCCCCCCC(=O)NCCCO[C@@H]1[C@@H](C)N(C)C[C@H](C)C[C@@](C)(O)[C@H](O[C@@H]2O[C@H](C)C[C@H](N(C)C)[C@H]2O)[C@@H](C)[C@H](O[C@H]2C[C@@](C)(OC)[C@@H](O)[C@H](C)O2)[C@@H](C)C(=O)O[C@H](CC)[C@@]1(C)O
2.06 | 5% | CC[C@H]1OC(=O)[C@H](C)[C@@H](O[C@H]2C[C@@](C)(OC)[C@@H](O)[C@H](C)O2)[C@H](C)[C@@H](O[C@@H]2O[C@H](C)C[C@H](N(C)CCCNC(C)=O)[C@H]2O)[C@](C)(O)C[C@@H](C)CN(C)[C@H](C)[C@@H](O)[C@]1(C)O
3.08 | 75% | CCCCC(=O)NCCCN(C)[C@H]1C[C@@H](C)O[C@@H](O[C@@H]2[C@@H](C)[C@H](O[C@H]3C[C@@](C)(OC)[C@@H](O)[C@H](C)O3)[C@@H](C)C(=O)O[C@H](CC)[C@@](C)(O)[C@H](O)[C@@H](C)N(C)C[C@H](C)C[C@@]2(C)O)[C@@H]1O
2.54 | 15% | CCC(=O)NCCCO[C@H]1[C@H](C)O[C@@H](O[C@H]2[C@H](C)[C@@H](O[C@@H]3O[C@H](C)C[C@H](N(C)C)[C@H]3O)[C@](C)(O)C[C@@H](C)CN(C)[C@H](C)[C@@H](O)[C@](C)(O)[C@@H](CC)OC(=O)[C@@H]2C)C[C@@]1(C)OC
2.7 | 41% | CCC(=O)NCCCO[C@H]1[C@H](O[C@@H]2[C@@H](C)[C@H](O[C@H]3C[C@@](C)(OC)[C@@H](O)[C@H](C)O3)[C@@H](C)C(=O)O[C@H](CC)[C@@](C)(O)[C@H](O)[C@@H](C)N(C)C[C@H](C)C[C@@]2(C)O)O[C@H](C)C[C@@H]1N(C)C
2.11 | 100% | CC[C@H]1OC(=O)[C@H](C)[C@@H](O[C@H]2C[C@@](C)(OC)[C@@H](O)[C@H](C)O2)[C@H](C)[C@@H](O[C@@H]2O[C@H](C)C[C@H](N(C)C)[C@H]2O)[C@](C)(O)C[C@@H](C)CN(C)[C@H](C)[C@@H](O)[C@]1(C)O [AZITHROMYCIN]
